These results are taken from PubChem BioAssay (NCI).

What all share (assay): NCI anticancer screen, dose series, 48 h
The subject of test [1] is HCC-2998 colon.
The subject of test [2] is HCT-116 colon.
Test [3] has as its system MALME-3M melanoma.
Test [4] relates to NCI-H522 lung.
Test [5] deals with RXF 393 renal.
Test [6] has as its system SK-MEL-2 melanoma.
In test [7] the test system is SN12C renal.
For test [8], the system named is UACC-257 melanoma.
Test [9] concerns HOP-92 NSCLC.
In test [10] the test system is LOX IMVI melanoma.

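Compound exposure: 48 hours, 5 concentrations, 96-well plates. Here, GI50 denotes the concentration required for 50% inhibition of growth. TGI: concentration producing complete growth inhibition.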 Bounds are passed on as bounds.

On to `O/N=C1/C(=C/c2ccc(F)cc2)CCCC1C(NO)c1ccc(F)cc1` (stereo unspecified), for which the TGI in test [1] is greater than 100 µM; in test [2] it was greater than 100 µM; in [3] it was greater than 100 µM; in test [4], 42.5 µM; in [5] it was 86.6 µM; in test [6] it was greater than 100 µM. The TGI in test [7] worked out at 43.6 µM; in test [8], 64.5 µM.
On to `O=C1C2=C(c3ccccc31)C(c1ccc(Cl)cc1)N1C(=O)CCSC1=N2` (stereo unspecified), for which the TGI in [1], in test [2], in test [9], in [3], in [4] and in test [6] was greater than 100 µM each time. Also, the TGI in test [7] and in test [8] was greater than 100 µM throughout.
In the case of `CCOC(=O)c1cnc(SCc2ccc(Cl)c(Cl)c2)nc1N1CC1`, the GI50 in test [1] is 2.07 µM; in test [2], 0.9 µM; in test [10] it was 1 µM; in test [3] it was 3.33 µM; in test [4], 2.23 µM; in test [5], 4.04 µM. For the same molecule, the GI50 is 3.26 µM in test [6], 4.37 µM in test [7] and 4.78 µM in [8]. For the same molecule, the TGI in [1] is 4.73 µM; in [2], 10.9 µM; in test [10], 5.73 µM; in [3], 14.8 µM; in test [4], 6.88 µM; in test [5], 16.2 µM. For the same molecule, the TGI in test [6] is 11.1 µM; in test [7], 21.2 µM; in test [8] it was 19.8 µM.
On to `O=c1c(Cl)nnc2sc3ccccc3n12`, for which the GI50 in test [2] is 20.4 µM; in test [9], 20.6 µM; in test [10], 30.5 µM; in test [4] it was greater than 100 µM; in [5], 27.8 µM; in test [6], greater than 100 µM. The GI50 in test [7] is 24.6 µM. For the same molecule, the TGI in test [2] was 68.3 µM; in [9] it was greater than 100 µM; in test [10], 64.5 µM; in test [4], greater than 100 µM; in [5], 81.9 µM; in test [6] it was greater than 100 µM. For the same molecule, in test [7], the TGI was greater than 100 µM.
On to `S=c1[nH]nc(COc2ccc(Cl)cc2)o1`, for which the TGI in [1], in test [2], in [9], in test [3], in [4] and in test [7] was greater than 100 µM each time. Further, the TGI in test [8] is greater than 100 µM.
With `COc1cc(-c2cc(C(=O)N3CCN(C(=O)c4ccccc4NCc4ccco4)CC3)nc3cc(-c4ccccc4)nn23)cc(OC)c1OC`, the GI50 in test [1] is 7.56 µM; in test [2] it was 3.26 µM; in test [10] it was 4.01 µM; in [3], 7.58 µM; in [4], 0.859 µM; in [5] it was 1.53 µM. The GI50 in test [6] was 2.9 µM; in test [7], 6.7 µM; in test [8], 3.92 µM. Further, the TGI in test [1] is greater than 100 µM; in test [2] it was greater than 100 µM; in test [10], greater than 100 µM; in test [3], greater than 100 µM; in [4], greater than 26.5 µM; in test [5] it was 4.17 µM. In addition, the TGI in test [6] was greater than 79.4 µM; in [7], greater than 100 µM; in test [8], greater than 100 µM.
Turning to `Cc1ccc2c(c1)NC(c1ccc(C(=O)O)cc1)c1cccn1-2` (stereo unspecified), the TGI in test [2] was greater than 100 µM; in [10] it was greater than 100 µM; in [5], 50.2 µM; in [6] it was greater than 100 µM; in [7], greater than 100 µM; in test [8], greater than 100 µM.
With `Nc1ccn(C=C=CCO)c(=O)n1`, the GI50 in test [1], in test [2], in test [9], in test [10], in [3] and in [4] was greater than 1000 µM throughout. The GI50 in test [6], in test [7] and in test [8] was greater than 1000 µM each time. The TGI in test [1], in test [2], in test [9], in test [10], in test [3] and in [4] was greater than 1000 µM throughout. The TGI in test [6], in test [7] and in test [8] was greater than 1000 µM each time.
For `COc1cc2c3c(n(C)c(=O)c2cc1OC)-c1cc2c(cc1/C3=C\CCCCN)OCO2`, the GI50 in [9] was 43.5 µM; in test [10], 12.9 µM; in [4] it was 2.02 µM; in [5], 36 µM; in test [6], 5.71 µM; in test [7] it was 9.39 µM. The GI50 in test [8] was 12.5 µM. Besides, the TGI is greater than 100 µM in [9]; 41.1 µM in test [10]; 9.24 µM in [4]; 57.1 µM in [5]; 24.1 µM in [6]; 24.4 µM in test [7]. The molecule also registered a TGI in test [8] of 35.7 µM.
Turning to `CC(C)=CC(=O)CC(=O)C(=O)Nc1ccc(C)c(C)c1`, the TGI in test [2], in [9], in [10], in [3], in test [4] and in [6] was greater than 100 µM in each case. The TGI in test [7] and in test [8] was greater than 100 µM in each case.
As for `C1CCC([PH+](C2CCCCC2)C2CCCCC2[PH+](C2CCCCC2)C2CCCCC2)CC1.[Au].[CH-]1CCCCC1C1CCCC[N-]1` (stereo unspecified), the GI50 in [9] is 0.241 µM; in test [3], 0.208 µM; in test [5] it was 0.278 µM; in test [6] it was 0.351 µM; in [8] it was 0.329 µM. The TGI in test [9] was 1.14 µM; in test [3], 0.844 µM; in test [5], 1.18 µM; in [6] it was 1.52 µM; in test [8] it was 2.24 µM.
On to `CC1=C(C(=O)Nc2ccccc2)C(c2ccc3c(c2)OCO3)C(C(=O)Nc2ccccc2)=C(C)N1`, for which the TGI was greater than 100 µM in test [1]; 76.5 µM in [10]; greater than 100 µM in test [3]; 73.3 µM in [4]; 50.2 µM in [5]; 74.5 µM in [6]. The TGI in [7] and in test [8] was greater than 100 µM throughout.
As for `CC1(C)N=C(N)N=C(N)N1c1cccc(/C=C/C=C/c2cccc([N+](=O)[O-])c2)c1`, the GI50 in [1] is 4.71 µM; in [2] it was 3.16 µM; in [10], 5.02 µM; in test [4], 4.72 µM; in test [5], 17.4 µM; in [6] it was 13.4 µM. The GI50 in test [7] was 5.3 µM; in test [8], 5.42 µM. Further, the TGI in [1] is 18.5 µM; in test [2] it was 30.4 µM; in [10], 19.2 µM; in [4], 20.1 µM; in test [5], greater than 100 µM; in test [6], 28.5 µM. In addition, the TGI in test [7] is 20.1 µM; in test [8] it was 20.2 µM.
As for `CC(=O)[CH-]C(=O)c1ccccc1.CC(=O)[CH-]C(=O)c1ccccc1.CCN(CC)CC[O-].CCN(CC)CC[O-].Cl.[Ti+4]`, the GI50 is 23.1 µM in test [1]; 27.2 µM in test [2]; 43.4 µM in [10]; 22.8 µM in [3]; 17.1 µM in test [4]; 26.9 µM in [6]. For the same molecule, the GI50 is 39.5 µM in test [7] and 24.3 µM in test [8]. Also, the TGI in [1] is 76.6 µM; in [2], greater than 100 µM; in test [10] it was greater than 100 µM; in test [3], 60.8 µM; in [4], 43 µM; in test [6] it was 93.9 µM. The TGI is greater than 100 µM in [7] and 96.1 µM in test [8].
For the molecule `COC(=O)Nc1nc2ccc(C(=O)c3ccc[nH]3)cc2[nH]1`, the TGI in test [1] is greater than 100 µM; in [2], greater than 100 µM; in test [10], greater than 100 µM; in test [3], greater than 31.3 µM; in test [5], 4.78 µM; in test [6], greater than 100 µM. This molecule also registered a TGI in test [7] greater than 100 µM.
With `CCOC(=O)Cc1c(Cc2[nH]c(C(=O)OCc3ccccc3)c(CC(=O)OCC)c2CC(=O)OCC)[nH]c(C(=O)OCc2ccccc2)c1CC(=O)OCC`, the TGI in test [2], in [9], in [3], in test [4] and in [7] was greater than 100 µM throughout.
As to `CCCCN(CCCC)C(=O)C(=O)CC(=O)c1ccc(Br)cc1`, the TGI in [1], in [2], in test [9], in test [10], in test [3] and in test [4] was greater than 100 µM each time. Also, the TGI in [6], in [7] and in test [8] was greater than 100 µM in each case.
For `CC(Cc1ccc(Cl)cc1Cl)NO` (stereo unspecified), the TGI in test [2], in test [10], in [3], in test [4], in [5] and in test [6] was greater than 100 µM in each case. The TGI in test [7] and in test [8] was greater than 100 µM each time.
As to `Cc1ccc(-c2c(C#N)c(N)nc(N3CCOCC3)c2C#N)o1`, the GI50 in [2] is 33.5 µM; in test [9] it was 23.6 µM; in test [3], 43.4 µM; in test [4], 36.4 µM; in [5], 40.7 µM; in test [6], 78.8 µM. For the same molecule, the figures for the GI50 in [7] and in test [8] were 41.6 µM and 99.8 µM, respectively. Moreover, the TGI in test [2], in [9], in test [3], in test [4], in test [5] and in test [6] was greater than 100 µM each time. The TGI in test [7] and in [8] was greater than 100 µM in each case.
Turning to `CCOC(=O)c1cccc(=O)c(C(=O)OCC)c1`, the TGI in [1], in test [2], in test [3], in test [5], in test [6] and in test [8] was greater than 100 µM throughout.
For `ClC(=Nc1cccc2ccccc12)N(c1ccccc1)c1ccccc1`, the TGI in test [1] was 54.8 µM; in test [2], greater than 100 µM; in test [10] it was greater than 100 µM; in test [3] it was greater than 100 µM; in test [4], greater than 100 µM; in test [5] it was greater than 100 µM. The TGI in test [6], in test [7] and in [8] was greater than 100 µM each time.
For the molecule `O=C1C2=C(c3ccccc31)C(c1cccc(Cl)c1)NC(=S)N2` (stereo unspecified), the TGI in [1], in test [2], in test [9], in [3], in test [4] and in test [6] was greater than 100 µM throughout. Also, the TGI in test [7] and in test [8] was greater than 100 µM in each case.
On to `CC(=O)Oc1c(C)n(CCCl)ccc1=O`, for which the TGI in test [2], in test [10], in test [3], in [4], in [5] and in test [6] was greater than 100 µM each time. In addition, the TGI in [7] and in [8] was greater than 100 µM in each case.
As for `COc1cc2cc(Oc3ccc(NC(=O)Nc4cccc(C(F)(F)F)c4)cc3)c(C)nc2cc1OCCN1CCCCC1`, the GI50 was 1.08 µM in [9]; 1.63 µM in test [3]; 1.67 µM in [4]; 1.66 µM in [7]; 1.86 µM in test [8]. The TGI in test [9] was found to be 2.34 µM; in [3] it was 3.07 µM; in [4], 3.33 µM; in test [7], 3.15 µM; in test [8], 3.48 µM.
As for `COc1ccc(-c2oc3cc(O)c(OC)c(O)c3c(=O)c2OC2OC(CO)C(O)C(O)C2O)cc1` (stereo unspecified), the TGI in [1], in test [2], in test [9], in [10], in test [6] and in test [7] was greater than 100 µM each time.
